The text below walks through data of US7067491B2, “Heterocyclic compounds having elastase-inhibiting activity and intermediates thereof” (Dainippon Pharmaceutical Co., Ltd., priority 2002, dated 2006).

As a reminder, the pIC50 is the negative decadic logarithm of the IC50, by convention in mol/L. As a reminder, the ED50 is the dose that gives a 50% effect, or the effect in half of the subjects. A higher ED50 goes with weaker potency.

In assay [1] the target is T1, human neutrophil elastase (Homo sapiens, UniProt P08246).
T1 construct: purchased Elastine Product Co., Inc
T1 sequence (P08246 30-267): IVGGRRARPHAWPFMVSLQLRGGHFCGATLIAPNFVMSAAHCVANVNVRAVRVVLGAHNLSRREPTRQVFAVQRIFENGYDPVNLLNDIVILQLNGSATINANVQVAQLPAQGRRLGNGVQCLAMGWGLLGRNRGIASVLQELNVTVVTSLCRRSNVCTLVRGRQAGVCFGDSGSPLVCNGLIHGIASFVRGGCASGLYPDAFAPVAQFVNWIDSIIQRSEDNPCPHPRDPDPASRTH
As to the kind of experiment: Inhibitory activity on human neutrophil elastase (HNE) in vitro. The assay is classed as biochemical. Conditions: human neutrophil elastase 0.2 U/ml, substrate MeO-Suc-Ala-Ala-Pro-Val-pNA 0.5 mM, 37° C., pH 7.5. How it is done: Experiment 1: Inhibitory Activity on Human Neutrophil Elastase (HNE)
The inhibitory activity of the compound of the present invention in vitro on human neutrophil elastase was examined by this experiment.
To 100 mM of HEPES {[N-(2-hydroxyethyl)piperazine-N′-(2-ethanesulfonic acid)], pH 7.5}buffer solution containing 1M NaCl and 0.001% Brij-35 (polyoxyethylene lauryl ether) were added human neutrophil elastase (final concentration: 0.2 U/ml, Elastine Product Co., Inc.) and the compound of the present invention (dissolved in 10% dimethyl sulfoxide; final concentration: 10^−10˜3×10^−3 M). The mixture was pre-incubated for 3 minutes at 37° C. Thereto was added MeO-Suc-Ala-Ala-Pro-Val-pNA (methoxysuccinyl-alanyl-alanyl-prolyl-valyl-p-nitroanilide (Sigma Chemical Co.)) as a substrate to give the final concentration of 0.5 mM, and the reaction was initiated. Under this condition, the producing rate of the reaction product, p-nitroanilide (pNA) at 37° C. was estimated by measuring the absorbance at 404 nm for 3 minutes.
The inhibitory activity of the compound of the present invention against human neutrophil elastase (HNE) is calculated according to the following formula.
The concentration of the compound of the present invention to be required to achieve 50% HNE inhibition (i.e., IC50) was calculated based on the concentration-inhibitory rate curve of the compound of the present invention.
As a comparative compound, N-[(1S)-2-((2S)-2-{N-[(1S)-3,3,3-trifluoro-1-(methylethyl)-2-oxopropyl]carbamoyl}pyrrolidinyl)-1-(methylethyl)-2-oxoethyl](imidazol-4-yl)carboxamide was used, and the same assay was carried out. The planar structure of this compound was the same as one of compound (22) disclosed in J. Med. Chem., 1997, 40, 1876–1885.

The target in assay [2] is T2, porcine pancreas elastase (Sus scrofa, UniProt P00772).
T2 construct: purchased Elastin Products Co., Inc
T2 sequence (P00772 27-266): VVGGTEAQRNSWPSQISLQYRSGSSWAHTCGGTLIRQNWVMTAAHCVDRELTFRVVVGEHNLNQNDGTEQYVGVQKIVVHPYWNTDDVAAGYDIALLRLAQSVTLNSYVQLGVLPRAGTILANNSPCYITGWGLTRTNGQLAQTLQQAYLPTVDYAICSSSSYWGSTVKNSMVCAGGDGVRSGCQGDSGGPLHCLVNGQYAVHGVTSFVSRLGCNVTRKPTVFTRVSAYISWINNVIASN
The assay is described as follows: Inhibitory activity against porcine pancreas elastase. Conditions: porcine pancreas elastase 40 ng/ml, substrate Suc-Ala-Ala-Ala-pNA 2.5 mM. The assay is classed as biochemical. How it is done: Experiment 2: Inhibitory Activity Against Porcine Pancreas Elastase
The inhibitory activity was measured in the same manner as experiment 1, except for using porcine pancreas elastase (Elastin Products Co., Inc., final concentration 40 ng/ml) as a target enzyme and Suc-Ala-Ala-Ala-pNA (succinyl-alanyl-alanyl-alanyl-p-nitroanilide, Peptide Research, final concentration 2.5 mM) as a substrate.

Assay [3] has as its system pulmonary hemorrhage induced by human neutrophil elastase (HNE). As to the kind of experiment: Inhibitory activity on pulmonary hemorrhage induced by human neutrophil elastase (HNE). The assay is classed as in vivo. Conditions: Homo sapiens, Neutrophil, po; hamster, orally administered 30 minutes prior to intratracheal HNE; hemoglobin in bronchoalveolar lavage fluid after 1 hour. From the text:
Experiment 3: Inhibitory Activity on Pulmonary Hemorrhage Induced by Human Neutrophil Elastase (HNE)
This experiment tested on in vivo efficacy of the compound of the present invention. When human neutrophil elastase is intratracheally administered to a hamster, the pulmonary hemorrhage is induced. A definite time later after administration of the elastase, in the bronchoalveolar lavage fluid by washing lung via trachea, hemoglobin is detected.
Hamsters (Syrian strain, 7–10 weeks old male) were divided into groups consisting of 3 to 6, and each group was treated as follows:
(A) A Group to which the Compound of the Present Invention was not Administered (Disease Control):
Physiological saline solution (0.2 ml) in which 25 unit of human neutrophil elastase (Elastin Product Co., Inc.) was dissolved was intratracheally administered to a hamster to induce the pulmonary hemorrhage. One hour later after administration of elastase, the hamsters were sacrificed by exsanquination, and alveoli were transtracheally washed twice with physiological saline (2.5 ml), and the hemoglobin concentration in the bronchoalveolar lavage fluid (5 ml) was determined by measuring the absorbance at 414 nm.
(B) A Group to which the Compound of the Present Invention was Administered:
A fixed amount of the compound of the present invention was dissolved in dimethyl sulfoxide (DMSO), and thereto was added 0.5% tragacanth gum to prepare a suspension. The suspension was orally administered to a hamster, 30 minutes prior to the administration of human neutrophil elastase (HNE) (final concentration of DMSO, 1%), and then, human neutrophil elastase was administered in the same manner as the above method (A). After 1 hour, the concentration of hemoglobin in the bronchoalveolar lavage fluid was determined in the same manner as the above method (A).
The hemorrhage inhibition activity of the compound of the present invention is represented as the hemorrhage inhibiting rate in the following formula.
The dose of the compound of the present invention to be required to achieve 50% inhibition of pulmonary hemorrhage (i.e., ED50) was calculated based on the administration dose-hemorrhage inhibiting rate curve.
As a comparative example, the same experiment was also carried out on a comparative compound used in Experiment 1.
Some of the compounds of the present invention were compared with the comparative compound on the hemorrhage inhibitory rate at the dose of 3 mg/kg.

Molecules are shown by their SMILES. pIC50: −log10 of the molar value.

Regarding `Cc1nnsc1C(=O)N[C@H](C(=O)N1CCC[C@H]1C(=O)N[C@H](C(=O)C(F)(F)F)C(C)C)C(C)C` [Example 3, N-[(1S)-2-((2S)-2-{N-[(1S)-3,3,3-trifluoro-1-(methylethyl)-2-oxopropyl]carbamoyl}pyrrolidinyl)-1-(methylethyl)-2-oxoethyl]-(4-methyl-1,2,3-thiadiazol-5-yl)carboxamide], the pIC50 is 7.89 in assay [1] and 6.81 in assay [2]. The compound further displayed an ED50 in assay [3] of 1.6 mg/kg.
